IC50 data for five compounds are collected here from ChEMBL document CHEMBL1134787, “Synthesis and biological studies of novel nucleoside phosphoramidate prodrugs” (J Med Chem, 2001).

Each structure is given as a SMILES string.

In test [1] the target is T1, Thymidylate synthase (Mus musculus, UniProt P07607). The experiment in a line: Thymidylate synthase inhibition in wild type LM cells after 2 hr treatment. The test is classed as cell-based.
For test [2], the target named is T1, Thymidylate synthase. Briefly: Thymidylate synthase inhibition in thymidine kinase deficient /TK cells after 2 hr treatment.
In test [3] the target is T1, Thymidylate synthase. Briefly: Thymidylate synthase inhibition in L1210 mouse leukemia cells after 2 hr treatment. The format is cell-based.
In test [4] the test system is L1210. Briefly: Growth inhibition in L1210 mouse leukemia cells after 8 h treatment. The format is functional, cell-based. The note with it: L1210, 8 h.
In test [5] the test system is L1210. Briefly: Growth inhibition in L1210 mouse leukemia cells after 24 h treatment. As to conditions: L1210, 24 h. The format is functional, cell-based.
The subject of test [6] is L1210. The experiment in a line: Growth inhibition in L1210 mouse leukemia cells after 48 hr treatment. The test is classed as functional, cell-based. As to conditions: L1210, 48 h.
In test [7] the test system is L1210. Briefly: Growth inhibition in L1210 mouse leukemia cells after 2 hr treatment. The note with it: L1210, 2 h. The test is classed as functional, cell-based.
The target of test [8] is T1, Thymidylate synthase. The experiment in a line: Thymidylate synthase inhibition in thymidine kinase deficient LM cells after 2 hr treatment. The format is cell-based.

T1 sequence (P07607 whole entry): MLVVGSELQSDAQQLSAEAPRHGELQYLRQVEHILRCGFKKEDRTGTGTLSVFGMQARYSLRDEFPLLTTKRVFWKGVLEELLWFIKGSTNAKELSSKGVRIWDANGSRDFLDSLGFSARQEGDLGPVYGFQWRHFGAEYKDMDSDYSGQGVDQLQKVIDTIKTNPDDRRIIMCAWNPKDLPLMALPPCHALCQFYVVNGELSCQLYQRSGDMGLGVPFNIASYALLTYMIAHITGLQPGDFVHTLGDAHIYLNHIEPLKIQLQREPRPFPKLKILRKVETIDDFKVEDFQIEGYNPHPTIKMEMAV

On to `CN(CCCCCl)P(=O)(OCC1=CC(=O)c2ccccc2C1=O)OC[C@H]1O[C@@H](n2cc(F)c(=O)[nH]c2=O)C[C@@H]1O` (some centres not stated), for which the IC50 (usually the point on the concentration scale where inhibition reaches its midpoint) against Thymidylate synthase [1] worked out at 230 nM; at Thymidylate synthase [2], 25 nM; on Thymidylate synthase [3] it was 10 nM; with L1210 [4] it was 16 nM; with L1210 [5], 3.1 nM; in the test with L1210 [6] it was 0.63 nM. The results for the IC50 in the test on L1210 [7] and at Thymidylate synthase [8] were 44 nM and 5900 nM, respectively.

As to `CN(CCBr)P(=O)(OCc1ccc([N+](=O)[O-])o1)OC[C@H]1O[C@@H](n2cc(F)c(=O)[nH]c2=O)C[C@@H]1O` (some centres not stated), the concentration for half-maximal inhibition (IC50) with L1210 [4] was 347 nM; in the test with L1210 [5], 56 nM; in the test on L1210 [6], 16 nM; with L1210 [7], 1030 nM.

As for `CN(CCCCCl)P(=O)(OCc1ccc([N+](=O)[O-])o1)OC[C@H]1O[C@@H](n2cc(F)c(=O)[nH]c2=O)C[C@@H]1O` (some centres not stated), the IC50 against Thymidylate synthase [1] was 560 nM; on Thymidylate synthase [2], 1.9 nM; at Thymidylate synthase [3] it was 65 nM; in the test with L1210 [4], 47 nM; with L1210 [5] it was 7.2 nM; in the test with L1210 [6], 2.3 nM. The IC50 in the test on L1210 [7] stood at 116 nM; at Thymidylate synthase [8] it was 1060 nM.

Take `O=c1[nH]c(=O)n([C@H]2C[C@H](O)[C@@H](CO)O2)cc1F` [FLOXURIDINE]: the half-maximal inhibitory concentration (IC50) came to 260 nM against Thymidylate synthase [1]; 20 nM against Thymidylate synthase [2]; 7.9 nM at Thymidylate synthase [3]; 23 nM in the test with L1210 [4]; 4.1 nM in the test with L1210 [5]; 0.64 nM in the test on L1210 [6]. The IC50 came out at 45 nM in the test on L1210 [7] and 5400 nM on Thymidylate synthase [8].

As for `O=c1[nH]cc(F)c(=O)[nH]1` [FLUOROURACIL], the IC50 in the test on L1210 [4] was determined as 1010 nM; with L1210 [5], 360 nM; with L1210 [6], 200 nM; with L1210 [7], 2500 nM.
